This assay addresses His6 USP28 (Homo sapiens (Human), UniProt Q96RU2). The assay is described as follows: Ubiquitin-Rhodamine 110 assay to determine USP28 IC50. It is filed as biochemical. The following applies: USP28 150 pM, Ub-Rho110 41 nM, 2 h pre-incubation with enzyme, fluorescence read. How it is done: Example 21. Ubiquitin-Rhodamine 110 Assay to Determine USP28 IC50
Each assay was performed in a final volume of 8 μl in assay buffer containing 10 mM HEPES pH 7.3 ((1 M, pH 7.3 solution, (VWR J848), 100 mM NaCl (5 M, Corning 46-032-CV), 0.01% Triton X-100 (Sigma #T8787), 3.5 mM DTT (1 M, Sigma #43819) and 0.00375% BSA (10%, Calbiochem, #126609)). The assay buffer pH was adjusted to 7.5 using 1 N NaOH (JT Baker, #5000-03). Stock compounds were stored at −80° C. as a 25 mM in DMSO solution along with their respective 20 point 2 fold serial dilutions. For the dose responses, stock compound plates were allowed to come to room temperature the day of the assay. […] of the serial dilution series were pre stamped into assay plates (Black, high base, medium binding, Greiner #782076) for a final top screening concentration of 125 μM (DMSO final concentration=0.5%). Enzyme (His6 USP28, BostonBiochem, #E-570) concentration and incubation times were optimized for the maximal signal to background while maintaining the initial velocity conditions at a fixed substrate concentration. The final concentration of the enzyme in the assay was 150 pM. Final substrate (Ub-Rhol10, Ubiquitin-Rhodamine 110, UBPBio, #M3020) concentration was 41 nM. 2 μl of 4× enzyme was added to assay plates (pre stamped with compound) and incubated for 2 h at room temperature. […] was subsequently added to the assay plates and incubated for 2 h at room temperature. Fluorescence was then read on the Envision (Excitation 485 nm and Emission at 535 nm, Perkin Elmer).
His6 USP28, sequence (Q96RU2 whole entry): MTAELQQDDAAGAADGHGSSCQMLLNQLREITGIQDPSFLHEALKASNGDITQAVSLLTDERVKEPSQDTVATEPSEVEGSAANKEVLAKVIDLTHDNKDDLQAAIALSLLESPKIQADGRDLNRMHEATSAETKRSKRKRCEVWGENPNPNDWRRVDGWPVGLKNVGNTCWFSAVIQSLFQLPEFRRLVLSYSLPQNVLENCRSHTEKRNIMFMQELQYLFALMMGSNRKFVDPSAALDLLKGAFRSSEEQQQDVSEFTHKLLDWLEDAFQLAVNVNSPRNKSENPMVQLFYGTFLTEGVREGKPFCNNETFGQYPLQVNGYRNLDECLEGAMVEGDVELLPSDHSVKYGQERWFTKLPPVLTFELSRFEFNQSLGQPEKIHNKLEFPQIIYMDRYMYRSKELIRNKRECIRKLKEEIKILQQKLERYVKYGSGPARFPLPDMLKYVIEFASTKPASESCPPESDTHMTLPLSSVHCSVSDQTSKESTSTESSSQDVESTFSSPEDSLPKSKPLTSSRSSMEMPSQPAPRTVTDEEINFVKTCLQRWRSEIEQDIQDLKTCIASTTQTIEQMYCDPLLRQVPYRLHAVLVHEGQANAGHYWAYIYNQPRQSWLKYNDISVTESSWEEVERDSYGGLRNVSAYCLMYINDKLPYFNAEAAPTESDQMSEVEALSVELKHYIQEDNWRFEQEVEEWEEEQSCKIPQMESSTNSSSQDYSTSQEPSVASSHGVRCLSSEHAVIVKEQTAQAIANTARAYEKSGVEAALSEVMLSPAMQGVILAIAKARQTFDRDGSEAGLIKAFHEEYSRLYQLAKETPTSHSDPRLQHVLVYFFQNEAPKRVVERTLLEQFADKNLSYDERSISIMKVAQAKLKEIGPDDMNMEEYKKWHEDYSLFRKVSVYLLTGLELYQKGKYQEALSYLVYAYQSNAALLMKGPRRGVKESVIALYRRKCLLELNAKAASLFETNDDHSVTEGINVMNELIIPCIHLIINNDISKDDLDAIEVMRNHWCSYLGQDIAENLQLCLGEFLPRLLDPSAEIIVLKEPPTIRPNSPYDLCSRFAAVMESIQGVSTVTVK
`Cc1oc(Cc2cccc(Cl)c2)nc1-c1ccc(OCc2ccc(C(=O)N(C)C)cc2COCCO)cc1` [Compound 33, 4-((4-(2-(3-Chlorobenzyl)-5-methyloxazol-4-yl)phenoxy)methyl)-3-((2-hydroxyethoxy)methyl)-N,N-dimethylbenzamide] showed an IC50 of less than 50 nM.
The result for `CN[C@H]1CCN(C(=O)c2ccc(COc3ccc(-c4nc(Cc5cccc(Cl)c5)oc4C)cc3)nc2)C1` [Compound 35, (3S)-1-{6-[(4-{2-[(3-Chlorophenyl)methyl]-5-methyl-1,3-oxazol-4-yl}phenoxy)methyl]pyridine-3-carbonyl}-N-methylpyrrolidin-3-amine] reads less than 50 nM; that for `CN[C@@H]1CCN(C(=O)c2ccc(COc3ccc(-c4nc(Cc5cccc(Cl)c5)oc4C)cc3)nc2)C1` [Compound 36, (3R)-1-{6-[(4-{2-[(3-Chlorophenyl)methyl]-5-methyl-1,3-oxazol-4-yl}phenoxy)methyl]pyridine-3-carbonyl}-N-methylpyrrolidin-3-amine], less than 50 nM; that for `Cc1oc(Cc2cccc(Cl)c2)nc1-c1ccc(OCc2ccc(C(=O)N3CCC(N)CC3)cn2)cc1` [Compound 38, 1-{6-[(4-{2-[(3-Chlorophenyl)methyl]-5-methyl-1,3-oxazol-4-yl}phenoxy)methyl]pyridine-3-carbonyl}piperidin-4-amine], less than 50 nM.
Consider `CN[C@H]1CCCN(C(=O)c2ccc(COc3ccc(-c4nc(Cc5cccc(Cl)c5)oc4C)cc3)nc2)C1` [Compound 40, (3S)-1-{6-[(4-{2-[(3-Chlorophenyl)methyl]-5-methyl-1,3-oxazol-4-yl}phenoxy)methyl]pyridine-3-carbonyl}-N-methylpiperidin-3-amine], for which the IC50 was less than 50 nM.
In the case of `CN[C@@H]1CCCN(C(=O)c2ccc(COc3ccc(-c4nc(Cc5cccc(Cl)c5)oc4C)cc3)nc2)C1` [Compound 41, (3R)-1-{6-[(4-{2-[(3-Chlorophenyl)methyl]-5-methyl-1,3-oxazol-4-yl}phenoxy)methyl]pyridine-3-carbonyl}-N-methylpiperidin-3-amine] it was less than 50 nM; in that of `CC(=O)N1CCN(C(=O)c2cc3cc(OCc4ccccc4)ccc3[nH]2)C[C@@H]1C(=O)N[C@H]1C[C@@H](C)N(C#N)C1` [Compound 42], 50 to 500 nM; in that of `Cc1oc(Cc2cccc(Cl)c2)nc1-c1ccc(COc2ccc(C(=O)N3CCC(Cc4ncc[nH]4)CC3)cc2)cc1` [Compound 43, (4-((1H-Imidazol-2-yl)methyl)piperidin-1-yl)(4-((4-(2-(3-chlorobenzyl)-5-methyloxazol-4-yl)benzyl)oxy)phenyl)methanone], less than 50 nM.
The result for `Cc1oc(Cc2cccc(Cl)c2)nc1-c1ccc(COc2ccc(C(=O)N(C)CCN3CCCNC3=O)cc2)cc1` [Compound 44, 4-[(4-{2-[(3-Chlorophenyl)methyl]-5-methyl-1,3-oxazol-4-yl}phenyl)methoxy]-N-methyl-N-[2-(2-oxo-1,3-diazinan-1-yl)ethyl]benzamide] reads less than 50 nM.

By IC50 is commonly meant the concentration that inhibits the measured activity by half. A high value points to weaker potency in that assay.

For the origin of these results see patent US20240425513A1, “OXAZOLE, OXADIAZOLE, AND INDOLE DERIVATIVES FOR THE INHIBITION OF USP28” (Carmot Therapeutics, Inc., priority 2021, published 2024).
